In patent publication US8476253B2, “Amide derivative” (Daiichi Sankyo Company, Limited, priority 2009, dated 2013):
Counter-ions that a name gives are not always drawn.

Legend:
[1] = test system: muscarine M3 receptor; experiment: Effect of suppressing methacholine-induced airway contraction (in vivo, intratracheal administration); set-up: species or system guinea pig; conditions: guinea pigs, intratracheal administration 60 minutes before 30 μg/kg i.v. methacholine; AUC of increase in airway pressure over 10 minutes
Description: (§1) Using healthy guinea pigs (body weight, 350 to 550 g; Hartley male guinea pigs), the effect of suppressing airway contraction induced by methacholine, which is a muscarine receptor agonist, was examined by a modified method of Konzett-Roessler (Naunyn-Schmiedebergs Arch. Exp. Pathol. Pharmakol. 195, 71 [1940]) using airway pressure as an indicator.
(§2) A tracheal cannula and a venous cannula were attached to a guinea pig anesthetized with pentobarbital (50 mg/mL of solution, 0.40 to 0.50 mL/body, subcutaneous administration). An arterial cannula filled with heparin-containing physiological saline (100 U/mL) was further attached, and blood pressure and heart rate were monitored via an amplifier and an instantaneous heart rate meter. Subsequently, gallamine (20 mg/body, intravenous administration) was administered to terminate spontaneous breathing, and then 10 mL/kg of positive pressure breathing (Ugo-Basile Biological Research Apparatus, Cat. No. 7025) was rapidly performed at 60 times/min. The airway pressure during artificial breathing was detected with a pressure transducer (TP-200T or TP-400T; Nihon Kohden Corporation) attached to a side branch of the tracheal cannula, amplified (AP-601G; Nihon Kohden Corporation), and recorded in a recorder. After the airway pressure, blood pressure, and heart rate were stabilized, 30 μg/kg of methacholine was intravenously administered from the venous cannula to induce airway contraction, and the airway pressure was measured for the following 10 minutes.
A test substance was dissolved in 5% glucose solution, and a 0.5 mL/kg solution was administered intratracheally with an intratracheal administration apparatus (model 1A-1B; Penn-Century, Inc.) 60 minutes before stimulation with methacholine.
(§3) The AUC of increase in the airway pressure over 10 minutes after administration of methacholine was measured as the intensity of methacholine-induced airway contraction and calculated as an ID50 value from the inhibition rate based on the value of the control group (a 5% glucose solution intratracheal administration group).

[2] = target: T1, neurokinin NK1 receptor (Cavia porcellus, UniProt P30547); experiment: Effect of suppressing substance P-induced airway contraction (in vivo, intratracheal administration); set-up: species or system guinea pig; conditions: guinea pigs, intratracheal administration 60 minutes before 20 μg/kg i.v. SP, AUC of increase in airway pressure over 10 minutes
T1 construct: Using healthy guinea pigs (body weight, 350 to 550 g; Hartley male guinea pigs); from tissue; host or cells: live anaesthetised Hartley male guinea pigs (airway, in vivo)
T1 sequence (P30547 whole entry): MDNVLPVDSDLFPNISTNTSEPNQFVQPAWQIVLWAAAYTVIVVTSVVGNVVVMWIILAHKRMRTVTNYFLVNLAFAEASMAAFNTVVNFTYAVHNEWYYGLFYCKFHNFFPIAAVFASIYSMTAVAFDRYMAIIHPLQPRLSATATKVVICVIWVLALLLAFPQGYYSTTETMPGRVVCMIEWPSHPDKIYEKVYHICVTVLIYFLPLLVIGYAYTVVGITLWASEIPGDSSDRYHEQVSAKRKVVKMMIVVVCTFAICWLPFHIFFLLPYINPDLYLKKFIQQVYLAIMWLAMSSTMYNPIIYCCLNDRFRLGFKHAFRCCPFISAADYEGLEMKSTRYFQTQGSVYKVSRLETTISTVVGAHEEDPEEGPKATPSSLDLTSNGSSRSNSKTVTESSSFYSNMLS
Description: as §1, with “substance P (SP),” for “methacholine,”, “an NK1” for “a muscarine”
as §2, with “mg/mL” for “mg/mL of”, “20” for “30”, “SP” for “methacholine”
The test substance was dissolved in a 5% glucose solution, a 0.5 mL/kg solution was intratracheally administered with an intratracheal administration apparatus (model 1A-1B; Penn-Century, Inc.) 60 minutes before stimulation with SP.
as §3, with “SP” for “methacholine”, “determined” for “measured”, “SP-induced” for “methacholine-induced”, “(5%” for “(a 5%”

[3] = target: T2, neurokinin NK2 receptor (Cavia porcellus, UniProt Q64077); experiment: Effect of suppressing neurokinin A-induced airway contraction (in vivo, intratracheal administration); set-up: species or system guinea pig; conditions: guinea pigs, intratracheal administration 60 minutes before 4 μg/kg i.v. NKA; AUC of increase in airway pressure over 10 minutes
T2 construct: Using healthy guinea pigs (body weight, 350 to 550 g; Hartley male guinea pigs); from tissue; host or cells: live anaesthetised Hartley male guinea pigs (airway, in vivo)
T2 sequence (Q64077 1-402): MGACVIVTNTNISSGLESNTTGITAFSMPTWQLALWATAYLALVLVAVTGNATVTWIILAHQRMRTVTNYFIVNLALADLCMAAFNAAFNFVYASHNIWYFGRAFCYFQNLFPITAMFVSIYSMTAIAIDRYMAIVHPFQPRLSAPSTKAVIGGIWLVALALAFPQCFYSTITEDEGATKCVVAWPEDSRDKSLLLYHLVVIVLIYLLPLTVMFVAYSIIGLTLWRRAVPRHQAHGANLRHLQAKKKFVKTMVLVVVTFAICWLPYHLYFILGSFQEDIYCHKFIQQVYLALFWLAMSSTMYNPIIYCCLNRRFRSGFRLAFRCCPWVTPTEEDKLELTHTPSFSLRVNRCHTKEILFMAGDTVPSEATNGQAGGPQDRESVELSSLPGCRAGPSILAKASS
Description: as §1, with “neurokinin A (NKA),” for “methacholine,”, “an NK2” for “a muscarine”
as §2, with “mg/mL” for “mg/mL of”, “and” for “and then”, “4” for “30”, “NKA” for “methacholine”
The test substance was dissolved in a 5% glucose solution, and a 0.5 mL/kg solution was intratracheally administered with an intratracheal administration apparatus (model 1A-1B; Penn-Century, Inc.) 60 minutes before stimulation with NKA.
as §3, with “NKA” for “methacholine”, “determined” for “measured”, “NKA-induced” for “methacholine-induced”, “(5%” for “(a 5%”

[4] = target: T3, substance P receptor (Cavia porcellus, UniProt P30547); experiment: Test for binding to guinea-pig substance P receptor (crude lung membrane sample); conditions: crude guinea-pig lung membrane sample, [3H]substance P; Ki from IC50 and Kd; read-out: Ki
T3 construct: A preparation of a crude lung membrane sample was prepared; from tissue; host or cells: guinea-pig lung (crude membrane sample)
T3 sequence (P30547 whole entry): as the sequence (P30547 whole entry) above
Description: A preparation of a crude lung membrane sample was prepared, and a test for binding of a test substance to the sample was performed according to the method described in EP0336230A2.
The binding effect of the test substance to a substance P receptor was calculated as an affinity (Ki) of the test substance for the substance P receptor from a 50% binding concentration (IC50) and an affinity (Kd) of [^3H]substance P for the substance P receptor.

[5] = target: T4, human NK2 receptor (Homo sapiens, UniProt P21452); experiment: Test for binding to human NK2 receptor
T4 construct: expressed in transfected cells; host or cells: COS cells
T4 sequence (P21452 1-398): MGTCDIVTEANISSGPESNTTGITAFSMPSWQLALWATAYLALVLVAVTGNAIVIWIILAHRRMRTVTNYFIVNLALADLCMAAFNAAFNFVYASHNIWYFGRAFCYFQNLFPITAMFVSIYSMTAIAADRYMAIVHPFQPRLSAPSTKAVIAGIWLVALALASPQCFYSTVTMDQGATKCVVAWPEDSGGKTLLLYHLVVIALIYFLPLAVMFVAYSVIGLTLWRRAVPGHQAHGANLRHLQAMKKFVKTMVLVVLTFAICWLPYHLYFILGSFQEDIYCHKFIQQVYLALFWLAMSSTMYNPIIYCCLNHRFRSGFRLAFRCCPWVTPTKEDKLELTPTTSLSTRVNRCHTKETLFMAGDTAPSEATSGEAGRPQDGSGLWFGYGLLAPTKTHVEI
Description: A solution of cryopreserved COS cells expressing human NK2 receptor was diluted with a buffer (50 mM tris-hydrochloride containing 0.04% of bovine serum albumin [BSA], pH 7.4) to obtain a concentration of 5.0×10^5 cells/mL and used as a crude membrane sample.
[^3H]SR 48968 (GE Healthcare Japan Corporation) was diluted with a mixture of 50 mM of tris-hydrochloride (pH 7.4), 6 mM of manganese chloride tetrahydrate, 800 μg/mL of BSA, 8 μg/mL of chymostatin, 8 μg/mL of leupeptin, 80 μg/mL of bacitracin, and 20 μg/mL of phosphoramidon. […] After the reaction, the membrane components were collected on a GF/B glass fiber filter paper (Whatman; Biomedical Research and Development Laboratories, Inc.) with an automated filtration system (Brandel; Biomedical Research and Development Laboratories, Inc.). The glass fiber filter paper was pretreated with a 0.1% polyethylenimine solution for 4 hours or longer to minimize non-specific binding. The filter collecting the membrane components was transferred to a small-size plastic vial containing 3 mL of Pico-Fluor, and the radioactivity was measured with a liquid scintillation counter (Tri-Carb 2900TR or 2300TR; Perkin Elmer).
The effect of binding to the NK2 receptor was calculated as the affinity (Ki) of the test substance for the NK2 receptor from a 50% binding dose (IC50) and the affinity (Kd) of [^3H]SR 48968 for the NK2 receptor.

[6] = target: T5, human M3 receptor (Homo sapiens, UniProt P20309); experiment: Test for binding to human M3 receptor
T5 construct: expressed in transfected cells; host or cells: CHO cells
T5 sequence (P20309 whole entry): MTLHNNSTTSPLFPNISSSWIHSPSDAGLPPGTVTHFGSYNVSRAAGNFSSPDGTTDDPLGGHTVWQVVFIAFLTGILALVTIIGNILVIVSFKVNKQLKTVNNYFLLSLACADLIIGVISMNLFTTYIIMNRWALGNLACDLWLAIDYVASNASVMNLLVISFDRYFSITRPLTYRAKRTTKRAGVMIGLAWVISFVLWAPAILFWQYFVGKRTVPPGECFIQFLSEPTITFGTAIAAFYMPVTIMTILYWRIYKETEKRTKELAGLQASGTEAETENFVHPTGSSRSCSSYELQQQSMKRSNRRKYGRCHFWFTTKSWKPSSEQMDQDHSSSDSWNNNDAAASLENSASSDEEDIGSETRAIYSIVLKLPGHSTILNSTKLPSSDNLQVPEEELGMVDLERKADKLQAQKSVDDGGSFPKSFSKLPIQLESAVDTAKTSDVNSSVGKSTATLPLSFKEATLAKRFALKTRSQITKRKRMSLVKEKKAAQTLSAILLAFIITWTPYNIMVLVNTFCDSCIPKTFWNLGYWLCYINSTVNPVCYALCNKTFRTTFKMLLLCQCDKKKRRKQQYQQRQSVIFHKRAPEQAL
Description: A solution of cryopreserved CHO cells expressing human M3 receptor was diluted with a buffer (50 mM tris-hydrochloride containing 0.5 mM of EDTA, pH 7.4) to obtain 5.0×10^5 of cells/mL and used as a crude membrane sample.
[N-methyl-^3H]-(−)-Scopolamine methyl chloride (GE Healthcare Japan Corporation) was diluted with 50 mM of tris-hydrochloride containing 0.5 mM of EDTA (pH 7.4), a test substance and 250 μL of the crude membrane sample solution were added to 250 μL of the mixture, and the mixture was incubated at room temperature for 60 minutes. […] The glass fiber filter paper was pretreated with a 0.1% polyethylenimine solution for 4 hours or longer to minimize non-specific binding. The filter collecting membrane components was transferred to a small-size plastic vial containing 3 mL of Pico-Fluor, and the radioactivity was measured with a liquid scintillation counter (Tri-Carb 2900TR or 2300TR; Perkin Elmer).
The effect of binding to the M3 receptor was calculated as the affinity (Ki) of the test substance for the M3 receptor from a 50% binding dose (IC50) and the affinity (Kd) of [N-methyl-^3H]-(−)-Scopolamine methyl chloride for the M3 receptor.

SMILES	ID50 [1] [mg/kg]	ID50 [2] [mg/kg]	ID50 [3] [mg/kg]	Ki [4] [nM]	Ki [5] [nM]	Ki [6] [nM]	ED50 ([2]; guinea pig, read-out: ID50 (the source's name)) [mg/kg]
CN(CCN1CCC(OC(=O)Nc2ccccc2-c2ccccc2)CC1)C(=O)CCCCCCNc1ccc(C(=O)N(C)CCCN(C)C(=O)CO[C@H]2Cc3ccccc3C23CCN(CC[C@@]2(c4ccc(F)cc4)CN(C(=O)c4cc(C(F)(F)F)cc(C(F)(F)F)c4)CO2)CC3)cc1.Cl.Cl.Cl [Example 39]	0.0559	0.0388	0.0336				
CN(CCN1CCC(OC(=O)Nc2ccccc2-c2ccccc2)CC1)C(=O)CCCCCNc1nc(CC(=O)N(C)CCCN(C)C(=O)CO[C@H]2Cc3ccccc3C23CCN(CC[C@@]2(c4ccc(F)cc4)CN(C(=O)c4cc(C(F)(F)F)cc(C(F)(F)F)c4)CO2)CC3)cs1 [Example 88, 1-{2-[{6-[(4-{2-[{3-[({[(2S)-1′-{2-[(5R)-3-[3,5-Bis(trifluoromethyl)benzoyl]-5-(4-fluorophenyl)-1,3-oxazolidin-5-yl]ethyl}-2,3-dihydrospiro[indene-1,4′-piperidin]-2-yl]oxy}acetyl)(methyl)amino]propyl}(methyl)amino]-2-oxoethyl}-1,3-thiazol-2-yl)amino]hexanoyl}(methyl)amino]ethyl}piperidin-4-yl biphenyl-2-ylcarbamate trihydrochloride]	0.006			1.1	0.72	0.31	
CN(CCN1CCC(OC(=O)Nc2ccccc2-c2ccccc2)CC1)C(=O)CCCCCNc1ccc(C(=O)N(C)CCCN(C)C(=O)CO[C@H]2Cc3ccccc3C23CCN(CC[C@@]2(c4ccc(F)cc4)CN(C(=O)c4cc(C(F)(F)F)cc(C(F)(F)F)c4)CO2)CC3)c(Cl)c1 [Example 85, 1-(2-{[6-({4-[{3-[({[(2S)-1′-{2-[(5R)-3-[3,5-Bis(trifluoromethyl)benzoyl]-5-(4-fluorophenyl)-1,3-oxazolidin-5-yl]ethyl}-2,3-dihydrospiro[indene-1,4′-piperidin]-2-yl]oxy}acetyl)(methyl)amino]propyl}(methyl)carbamoyl]-3-chlorophenyl}amino)hexanoyl](methyl)amino}ethyl)piperidin-4-yl biphenyl-2-ylcarbamate trihydrochloride]	0.0327			2.2	1	1.9	0.0373
